For test [1], the target named is T1, glutathione S-transferase (GST)-fused full-length human Syk protein (Homo sapiens, UniProt P43405).
T1 construct: (GST)-fused full-length human Syk protein; GST (glutathione S-transferase); purchased Carna Biosciences
The test can be described thus: Syk enzyme assay. Format: biochemical. The settings on record: Syk enzyme assay, Test Example 1; read-out: IC50 of Syk-inhibitory activity. The gist of the method:
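IC50 values come from a time-resolved FRET readout (615 and 665 nm) of substrate phosphorylation, measured after an EDTA stop and 1 h antibody binding. The kinase reaction ran 40 min at room temperature with 27 μM ATP and 0.4 μM biotin-peptide, following a 15 min compound preincubation with baculovirus-made GST-full-length human Syk.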

A further test has as its system THP-1 cells. The test can be described thus: TNFα generation assay. The test is classed as cell-based, human. The conditions noted are these: Homo sapiens, THP-1, THP-1 cells; Table 22; read-out: IC50 in TNFα generation assay. The gist of the method:
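Secreted TNFα in supernatant quantified by ELISA or AlphaLISA after 7 h culture on human IgG-coated wells (10 μg/ml coating). Cells were IFN-γ-differentiated THP-1 (10 ng/ml, 2 days), exposed to compound for 30 min at room temperature before plating.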

Structures are written as SMILES. A value given as a limit tells only on which side of the number the result lay.

Experimental findings from patent US8895585B2, “Nicotinamide derivative or salt thereof” (FUJIFILM Corporation, priority 2010, dated 2014) are described below.

Turning to `CCC[C@@H](Nc1nc(Nc2cnc(C)c(-n3nccn3)c2)c(C(N)=O)cc1F)[C@H](C)N` [Example 006-252, 6-(((2S,3R)-2-aminohexan-3-yl)amino)-5-fluoro-2-((6-methyl-5-(2H-1,2,3-triazol-2-yl)pyridin-3-yl)amino)nicotinamide], the IC50 is less than 10 nM in test [1] and 65 to 130 nM in the test on THP-1 cells.

As to `CCC[C@@H](Nc1nc(Nc2cnc(OC)c(-n3nccn3)c2)c(C(N)=O)cc1F)[C@H](C)N` [Example 006-253, 6-(((2S,3R)-2-aminohexan-3-yl)amino)-5-fluoro-2-((6-methoxy-5-(2H-1,2,3-triazol-2-yl)pyridin-3-yl)amino)nicotinamide], the values for the IC50 (in test [1]; in the test with THP-1 cells) were 10 to 50 nM and 130 to 200 nM, respectively.

Regarding `CC[C@@H](Nc1nc(Nc2cncc(C3CC3)c2)c(C(N)=O)cc1F)[C@H](C)N` [Example 006-255, 6-(((2S,3R)-2-aminopentan-3-yl)amino)-2-((5-cyclopropylpyridin-3-yl)amino)-5-fluoronicotinamide], the IC50 in test [1] was less than 10 nM; in the test with THP-1 cells, 65 to 130 nM.

In the case of `CC[C@@H](Nc1nc(Nc2ccnc(-c3ccco3)c2)c(C(N)=O)cc1F)[C@H](C)N` [Example 006-256, 6-(((2S,3R)-2-aminopentan-3-yl)amino)-5-fluoro-2-((2-(furan-2-yl)pyridin-4-yl)amino)nicotinamide], the IC50 is less than 10 nM in test [1] and 65 to 130 nM in the test on THP-1 cells.

With `CC[C@@H](Nc1nc(Nc2cccc3cccnc23)c(C(N)=O)cc1F)[C@H](C)N` [Example 006-258, 6-(((2S,3R)-2-aminopentan-3-yl)amino)-5-fluoro-2-((quinolin-8-yl)amino)nicotinamide], the IC50 lay within 50 to 100 nM in test [1] and 130 to 200 nM with THP-1 cells.

For `CC[C@@H](Nc1nc(Nc2cnc3cc(OCCOC)ccc3c2)c(C(N)=O)cc1F)[C@H](C)N` [Example 006-259, 6-(((2S,3R)-2-aminopentan-3-yl)amino)-5-fluoro-2-((7-(2-methoxyethoxy)quinolin-3-yl)amino)nicotinamide], the results for the IC50 (in test [1]; in the test on THP-1 cells) were less than 10 nM and less than 65 nM, respectively.

In the case of `CC[C@@H](Nc1nc(Nc2ccc3nccnc3c2)c(C(N)=O)cc1F)[C@H](C)N` [Example 006-260, 6-(((2S,3R)-2-aminopentan-3-yl)amino)-5-fluoro-2-((quinoxalin-6-yl)amino)nicotinamide], the IC50 in test [1] is less than 10 nM; in the test with THP-1 cells, less than 65 nM.

In the case of `CC[C@@H](Nc1nc(Nc2ccc3cccnc3c2)c(C(N)=O)cc1F)[C@H](C)N` [Example 006-261, 6-(((2S,3R)-2-aminopentan-3-yl)amino)-5-fluoro-2-((quinolin-7-yl)amino)nicotinamide], the results for the IC50 (in test [1]; in the test with THP-1 cells) were less than 10 nM and less than 65 nM, respectively.

As to `CC[C@@H](Nc1nc(Nc2cncc3ccccc23)c(C(N)=O)cc1F)[C@H](C)N` [Example 006-262, 6-(((2S,3R)-2-aminopentan-3-yl)amino)-5-fluoro-2-((isoquinolin-4-yl)amino)nicotinamide], the IC50 in test [1] was less than 10 nM; in the test with THP-1 cells, less than 65 nM.

For `CC[C@@H](Nc1nc(Nc2cnc3ccc(OC)cc3c2)c(C(N)=O)cc1F)[C@H](C)N` [Example 006-264, 6-(((2S,3R)-2-aminopentan-3-yl)amino)-5-fluoro-2-((6-methoxyquinolin-3-yl)amino)nicotinamide], the IC50 was less than 10 nM in test [1] and less than 65 nM in the test with THP-1 cells.

As to `CC[C@@H](Nc1nc(Nc2ccc(N3CCOCC3)nc2)c(C(N)=O)cc1F)[C@H](C)N` [Example 006-265, 6-(((2S,3R)-2-aminopentan-3-yl)amino)-5-fluoro-2-((6-morpholinopyridin-3-yl)amino)nicotinamide], the IC50 in test [1] was in the range of 10 to 50 nM; in the test on THP-1 cells, 130 to 200 nM.

For the molecule `CC[C@@H](Nc1nc(Nc2ccnc(OC)c2)c(C(N)=O)cc1F)[C@H](C)N` [Example 006-266, 6-(((2S,3R)-2-aminopentan-3-yl)amino)-5-fluoro-2-((2-methoxypyridin-4-yl)amino)nicotinamide], the IC50 was less than 10 nM in test [1] and less than 65 nM in the test with THP-1 cells.

As to `CC[C@@H](Nc1nc(Nc2cc(OC)nc(OC)c2)c(C(N)=O)cc1F)[C@H](C)N` [Example 006-267, 6-(((2S,3R)-2-aminopentan-3-yl)amino)-2-((2,6-dimethoxypyridin-4-yl)amino)-5-fluoronicotinamide], the IC50 in test [1] is less than 10 nM; in the test with THP-1 cells, less than 65 nM.

For the molecule `CC[C@@H](Nc1nc(Nc2cccc3c2cnn3C)c(C(N)=O)cc1F)[C@H](C)N` [Example 006-268, 6-(((2S,3R)-2-aminopentan-3-yl)amino)-5-fluoro-2-((1-methyl-1H-indazol-4-yl)amino)nicotinamide], the IC50 in test [1] was less than 10 nM; in the test on THP-1 cells, less than 65 nM.

On to `CC[C@@H](Nc1nc(Nc2cncc(F)c2)c(C(N)=O)cc1F)[C@H](C)N` [Example 006-269, 6-(((2S,3R)-2-aminopentan-3-yl)amino)-5-fluoro-2-((5-fluoropyridin-3-yl)amino)nicotinamide], for which the IC50 lay within 10 to 50 nM in test [1] and 65 to 130 nM in the test with THP-1 cells.

For the molecule `CC[C@@H](Nc1nc(Nc2ccc3nc(OCCOC)ccc3c2)c(C(N)=O)cc1F)[C@H](C)N` [Example 006-271, 6-(((2S,3R)-2-aminopentan-3-yl)amino)-5-fluoro-2-((2-(2-methoxyethoxy)quinolin-6-yl)amino)nicotinamide], the IC50 was less than 10 nM in test [1] and less than 65 nM in the test with THP-1 cells.

Take `CC[C@@H](Nc1nc(Nc2cnc(C)c(C3CC3)c2)c(C(N)=O)cc1F)[C@H](C)N` [Example 006-272, 6-(((2S,3R)-2-aminopentan-3-yl)amino)-2-((5-cyclopropyl-6-methylpyridin-3-yl)amino)-5-fluoronicotinamide]: the IC50 lay in the range of 10 to 50 nM in test [1] and 65 to 130 nM with THP-1 cells.

Turning to `CCCC[C@H](CN)Nc1nc(Nc2ccc3ncccc3c2)c(C(N)=O)cc1F` [Example 006-274, (R)-6-((1-aminohexan-2-yl)amino)-5-fluoro-2-(quinolin-6-ylamino)nicotinamide], the results for the IC50 (in test [1]; in the test with THP-1 cells) were less than 10 nM and 65 to 130 nM, respectively.

In the case of `C[C@H](N)[C@@H](C)Nc1nc(Nc2ccc3ncccc3c2)c(C(N)=O)cc1F` [Example 006-275, 6-(((2R,3S)-3-aminobutan-2-yl)amino)-5-fluoro-2-((quinolin-6-yl)amino)nicotinamide], the values for the IC50 (in test [1]; with THP-1 cells) were less than 10 nM and less than 65 nM, respectively.

As for `CC[C@@H](Nc1nc(Nc2cncc(-c3cccc(OC)c3)c2)c(C(N)=O)cc1F)[C@H](C)N` [Example 006-276, 6-(((2S,3R)-2-aminopentan-3-yl)amino)-5-fluoro-2-((5-(3-methoxyphenyl)pyridin-3-yl)amino)nicotinamide], the IC50 in test [1] is less than 10 nM; in the test with THP-1 cells it was less than 65 nM.

For the molecule `CC[C@@H](Nc1nc(Nc2cncc(-c3ccc(OC)cc3)c2)c(C(N)=O)cc1F)[C@H](C)N` [Example 006-277, 6-(((2S,3R)-2-aminopentan-3-yl)amino)-5-fluoro-2-((5-(4-methoxyphenyl)pyridin-3-yl)amino)nicotinamide], the IC50 in test [1] was less than 10 nM; in the test on THP-1 cells it was 65 to 130 nM.

For `CC[C@@H](Nc1nc(Nc2cncc(-c3ccc(OC)cc3F)c2)c(C(N)=O)cc1F)[C@H](C)N` [Example 006-279, 6-(((2S,3R)-2-aminopentan-3-yl)amino)-5-fluoro-2-((5-(2-fluoro-4-methoxyphenyl)pyridin-3-yl)amino)nicotinamide], the figures for the IC50 (in test [1]; in the test with THP-1 cells) were less than 10 nM and 65 to 130 nM, respectively.
